Reference: paper PMC3781034, “A Small-Animal Pharmacokinetic/Pharmacodynamic PET Study of Central Serotonin 1A Receptor Occupancy by a Potential Therapeutic Agent for Overactive Bladder” (PLoS ONE, 2013)

What was measured:
rat 5-HT1A receptor = biological target: T1, rat 5-HT1A receptor (Rattus norvegicus, UniProt P19327); assay: Binding assay in rat hippocampal membrane fraction ([3H]MPPF); settings: saturation binding, rat hippocampal membranes, Scatchard plot
T1 construct: from tissue; host or cells: rat hippocampus, membrane (microsomal) fraction
T1 sequence (P19327 1-422): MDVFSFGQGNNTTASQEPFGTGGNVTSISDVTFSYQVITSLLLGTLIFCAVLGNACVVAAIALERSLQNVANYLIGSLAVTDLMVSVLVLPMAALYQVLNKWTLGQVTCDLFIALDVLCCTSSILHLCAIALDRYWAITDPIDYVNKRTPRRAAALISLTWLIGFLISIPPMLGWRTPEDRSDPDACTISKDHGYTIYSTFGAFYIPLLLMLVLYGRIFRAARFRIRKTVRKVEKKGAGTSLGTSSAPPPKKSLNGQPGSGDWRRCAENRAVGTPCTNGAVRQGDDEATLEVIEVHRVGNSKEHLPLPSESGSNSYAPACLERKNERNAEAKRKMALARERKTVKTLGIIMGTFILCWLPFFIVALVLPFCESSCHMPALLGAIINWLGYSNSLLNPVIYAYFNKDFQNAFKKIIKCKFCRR
Experimental: Rat hippocampal samples were weighed, homogenized in 10-fold volume of 50 mM Tris-HCl (pH 7.4) on an ice bath, and centrifuged (50,000×g, 4°C, 20 min). The precipitate was further homogenized in a 10-fold volume of 50 mM Tris-HCl (pH 7.4) on an ice bath and centrifuged (50,000×g, 4°C, 20 min). The obtained precipitate was homogenized in 50 mM Tris-HCl (pH 7.4) to render a concentration of 100 mg tissue eq./mL. The obtained microsomal fraction was stored as a receptor stock solution at -80°C until use. […] MPPF in a total 1-ml reaction volume at 25°C for 60 min. The reaction was terminated, and bound radioactivity was separated from free radioligands by filtering and washing three times with 3 ml of 50 mM Tris-HCl (pH 7.4). The radioactivity content of the filters in 5 ml of liquid scintillator (Atomlight; PerkinElmer) was counted by TR2500 scintillation counter (PerkinElmer Life & Analytical Sciences). The specific binding was determined as the difference between total and nonspecific binding, measured in the absence and presence of 100 µM 5-HT. Data were analyzed by Scatchard plot to estimate equilibrium constant (Kd) values. For the competition experiments, binding assays were carried out using 0.3 nM [^3H] […] MPPF according to the following equation:
Ki=IC50/1+[radioligand]/Kd (1)
where [radioligand] means the concentration of the radioligand used.

5-HT1A [1] = settings: hippocampus, PET, isoflurane-anesthetized rats; cited from earlier work
5-HT1A [2] = settings: hippocampal, unanesthetized rats; cited from earlier work
micturition interval = assay: 5-HT1A receptor agonist (8-OH-DPAT)-induced model of OAB, cystometry; format: in vivo, female SD rats; settings: intravenous infusion 0.06 mg/kg/h, female SD rats
Experimental: Catheter implantations and cystometric investigations were performed based on the reported method [14]. Briefly, on the day before the cystometric experiment, female SD rats were initially anesthetized with pentobarbital (50 mg/kg ip). Catheters were inserted into the femoral vein, the dome of the stomach and the dome of the bladder. In the cystometric study, the bladder catheter was connected to an infusion pump and a pressure transducer (DX-312; Nihon Kohden Co., Tokyo, Japan) by three-way stopcock. Saline was infused into the bladder and femoral vein. After bladder pressure was stabilized, 8-OH-DPAT (0.06 mg/kg/h) was infused into the femoral vein instead of saline. Bladder pressure was monitored with a pressure transducer and a pressure amplifier (AP-601G; Nihon Kohden), and recorded on a pen recorder (WT-645G; Nihon Kohden). The following three micturition intervals (i.e., intervals between consecutive peaks of bladder pressure induced at the time of bladder content evacuation) were obtained: (1) basal micturition interval (intervals before 8-OH-DPAT administration), (2) pre-administration micturition interval, (intervals immediately before administration of E2110 or vehicle), and (3) post-administration micturition interval (intervals observed between 1 and 2 hr after administration of E2110 or vehicle). […] E2110 (0.03, 0.1 or 0.3 mg/kg) or vehicle was administered to four groups of eight conscious rats orally.
Data are expressed as mean ± standard error of mean (S.E.M). In the pharmacological study, the statistical significance of differences between the vehicle- and E2110-treated groups was tested using one-way analysis of variance (ANOVA) followed by Dunnett’s multiple comparison test. A probability (p) value of <0.05 (two-sided) was considered statistically significant. All statistical analyses were performed using the SAS software package version 8.1 or 8.2 (SAS Institute Japan Ltd., Tokyo, Japan).

COc1ccccc1N1CCN(CCN(C(=O)c2ccc(F)cc2)c2ccccn2)CC1 [[^3H] MPPF, [^3H] 2'-methoxyphenyl-(N-2'-pyridinyl)-p-fluoro-benzamidoethyipiperazine, reference compound]
Kd (rat 5-HT1A receptor): 0.92 nM

CC(C)NCC(O)COc1cccc2[nH]ccc12 (stereo not shown) [pindolol]
in vivo ED50 for 5-HT1A RO (5-HT1A [1]): 5.6 mg/kg
ED50 for 5-HT1A RO, ex vivo autoradiography (5-HT1A [2]): 8.5 mg/kg

CCCN(CCC)C1CCc2cccc(O)c2C1 (stereo not shown) [8-OH-DPAT, 8-hydroxy-2-(di-n-propylamino)-tetralin, reference compound]
micturition interval versus basal level (micturition interval): markedly decreased
